Test results reported in patent US10434092B2, “Dosage regimen for an alpha-isoform selective phosphatidylinositol 3-kinase inhibitor” (Novartis AG, priority 2013, dated 2019).
“And” between values parts separate entries of the source, which are not always exact repeats. Equal entries are not always repeated.

Columns and labels:
[1] = Human plasma exposure; assay type: in vivo; details: po, human dose 300-350 mg/day p.o.
Experimental: The corresponding total dose for qd in continuous daily schedule p.o. dose would be 14 mg/kg.

[2] = test system: Rat1-myr-p110α tumor; experiment: Antitumor activity in the Rat1-myr-p110α tumor model, nude mice; assay type: in vivo; details: oral
Experimental: (§1) Experiments were performed in female Hsd: Athymic Nude-nu CPB mice (Harlan Winkelmann, Germany). Animals were between 12 and 14 weeks of age at treatment start and housed under Optimized Hygienic Conditions (OHC) in Makrolon type III cages (max. 5 animals per cage) with free access to food and water. In addition, experiments were also performed in female nude Rowett rats Hsd: RH-Fox1mu (Harlan (The Netherlands). Animals were 6-9 weeks of age at time of application of the compound. Animals were housed under Optimized Hygienic Conditions in Makrolon type III cages (max. 2 animals per cage) with free access to food and water. They were allowed to adapt for at least 6 days before the experiment was started.
(§2) Rat1-Myr-p110α cells were grown in Dulbecco's Modified Eagle Medium (DMEM) culture medium containing 4.5 g/l glucose supplemented with 10% heat-inactivated fetal calf serum (FCS), 2 mM L-glutamine, 1 mM sodium pyruvate and incubated at 37° C. in a 5% CO2 humidified atmosphere. Cells were harvested with trypsin-EDTA, re-suspended in culture medium (with additives) and counted with a Casy® system. Finally, cells are centrifuged, suspended in ice-cold Hanks' balanced salt solution (HBSS) at a concentration of 3×10^7 cells/ml. Cell culture reagents were purchased from BioConcept (Allschwil, Switzerland).
(§3) Rat1-Myr-p110α tumors were established by subcutaneous injection of […] in 100 μL HBSS (Sigma #H8264) into the right flank of nude mice or nude rats. For the efficacy experiments, treatments were initiated when the mean tumor volumes were approx. 300 mm^3 (14 to 15 days post tumor cells injection).
(§4) Fresh suspensions were prepared once every 4 days and stored at 4° C.
(§5) Tumor volumes were measured with calipers and determined according to the formula: length×diameter^2×[…]/6. In addition to presenting changes of tumor volumes over the course of treatments, antitumor activity is expressed as T/C % (mean change of tumor volume of treated animals/mean change of tumor volume of control animals)×100. Regressions (%) were calculated according to the formula ((mean tumor volume at end of treatment−mean tumor volume at start of treatment)/mean tumor volume at start of treatment)×100. Body weights and tumor volumes were recorded two to three times a week.

[3] = Pharmacokinetics after oral administration, nude rats; assay type: in vivo; details: nude rats, 12.5, 25, 40 and 80 mg/kg qd
Experimental: (§6) Blood samples were collected at different time points post the last treatment (1 hour, 2 hour, 4 hour, 8 hour, 12 hour, 16 hour and 24 hour, n=2-3 per time point) into tubes coated with K-EDTA. Blood samples were centrifuged and collected plasma immediately frozen at −80° C. until final processing. Tumors were collected at sacrifice at 7 time points (1 hour, 2 hour, 4 hour, 8 hour, 12 hour, 16 hour and 24 hour, n=2-3 per time point), snap frozen and kept at −80° C. until final processing.
(§7) Following addition of 25 μL of internal standard (1 μg/mL) to analytical aliquots (25 μL) of plasma or (20 mg) tumor powder, the proteins were precipitated by the addition of 200 μL acetonitrile. The supernatant were transferred in a fresh vial. After evaporation to dryness the samples were re-dissolved in 60 μL acetonitrile/water (1/1 v/v). An aliquot (5 μL) of this solution was separated on a ACQUITY UPLC BEH C18 column (Waters™ 1.7 μm particle size, 2.1×50 mm) with a mobile phase consisting of a mixture of 0.1% formic acid in water (solvent A) and 0.1% formic acid in acetonitrile (solvent B). Gradient programming was used with a flow rate of 600 μL/min. After equilibration with 95% solvent A, 5 μL of sample was injected. Following a latency period of 0.25 min, the sample was eluted with a linear gradient of 5-100% solvent B over a period of 0.65 minutes followed by a 0.35 minutes hold. […]

[4] = test system: S473P-Akt; experiment: In vivo S473P-Akt inhibition in Rat1-myr-p110α tumors (RPPA) versus tumor drug concentration; parameters: species or system nude mice and rats
Experimental: as §3, §6
After dissection, the tumors were snap-frozen in liquid nitrogen and stored at −80° C. Frozen tumors were pulverized using a Retsch ball mixer mill MM20 (Arlesheim, Switzerland) with metal cylinders that were pre-cooled to −80° C. in a freezer. Powder was scrapped from metal cylinders on dry ice and transferred into pre-cooled 1.5 mL Eppendorf tubes while avoiding melting.
as §7, with “hold. The column was prepared for the next sample by re-equilibrating over 0.25 minutes to the starting conditions.” for “hold.”
Each sample was vortexed and centrifuged for 10 minutes at 10,000 rpm. […] The protein concentrations were quantified using the Coomassie Plus Kit (#23236 Thermo Scientific, Rockford, Ill., USA) according to the protocol of the manufacturer. The diluted samples were transferred into a 96 well plate (#269620, NUNC) and the absorbance was measured at 595 nm using a SpectraMAX Plus plate reader from Molecular Devices. The Protein amount was calculated using the Softmax Pro 5.0 software (Molecular Devices, USA) and then normalized on 1 mg/mL using the corresponding lysis buffer. […]

[5] = biological target: mTOR (Homo sapiens, UniProt P42345); details: cited from earlier work
[6] = test system: advanced solid malignancies carrying an alteration in the PIK3CA gene; details: patients treated at ≥270 mg/day, oral, continuous daily schedule; breast, colorectal, endometrial, cervical cancer (1 patient each); as of Feb. 15, 2013; cited from earlier work
[7] = biological target: Vps34 (Homo sapiens, UniProt Q8NEB9); details: cited from earlier work
[8] = Pharmacokinetics after oral administration, nude mice; assay type: in vivo; details: nude mice, 12.5, 25 and 50 mg/kg qd
Experimental: as §6, §7

[9] = Plasma protein binding; assay type: in vitro ADME; details: mouse, read-out: plasma protein binding (PPB) (converted)
[10] = PK/PD/tolerability relationship (time above hyperglycemia threshold versus body weight loss); assay type: in vivo, nude mice and rats; details: mice and rats, threshold 20 μmol/L mice
Text: From this relationship, it is understood that the compound exposure levels should be sustained for no more than 35% of the dosing interval above the hyperglycemia cut-off to maintain body weight loss below 5% in mice and rats.

[11] = Modulation of glucose and insulin levels, nude rats; assay type: in vivo; details: versus plasma drug concentration
[12] = Modulation of glucose and insulin levels, nude mice; assay type: in vivo; details: versus plasma drug concentration
[13] = test system: Rat1-myr P110a tumors; experiment: PK/PD/efficacy relationship (time over in vivo IC80 versus anti-tumor efficacy); parameters: species or system mice and rats
Text: Phoenix WinNonlin 6.3 (Pharsight) was used to simulate the mean plasma concentration time profiles after multiple dosing using the non-compartmental nonparametric superposition approach of data generated either from a mouse or rat efficacy study. The predictions are based upon an accumulation ratio computed from the terminal slope (Lambda Z), allowing predictions from simple or complicated dosing schedules.
FIG. 6 provides the relationship between exposure (as measured by time over the in vivo IC80) and anti-tumor efficacy. Further, a nearly linear relationship is identified between the anti-tumor efficacy magnitude and duration of drug exposure (as measured by time over the in vivo IC80) over the IC80 (R^2=0.89; FIG. 7).

[14] = test system: Rat1-myr-p110α tumor; experiment: Antitumor activity in the Rat1-myr-p110α tumor model, nude rats; assay type: in vivo; details: nude rat, oral
Experimental: as §1, §2, §3, §4, §5

[15] = biological target: DNA-PK (Homo sapiens, UniProt P78527); details: cited from earlier work
[16] = test system: S473P-Akt; experiment: In vitro cellular S473P-Akt inhibition; assay type: cell-based
[17] = once or twice per day continuous daily schedule, oral; cited from earlier work
[18] = biological target: ATR (Homo sapiens, UniProt Q13535); details: cited from earlier work
Chain of ATR (Q13535 whole entry): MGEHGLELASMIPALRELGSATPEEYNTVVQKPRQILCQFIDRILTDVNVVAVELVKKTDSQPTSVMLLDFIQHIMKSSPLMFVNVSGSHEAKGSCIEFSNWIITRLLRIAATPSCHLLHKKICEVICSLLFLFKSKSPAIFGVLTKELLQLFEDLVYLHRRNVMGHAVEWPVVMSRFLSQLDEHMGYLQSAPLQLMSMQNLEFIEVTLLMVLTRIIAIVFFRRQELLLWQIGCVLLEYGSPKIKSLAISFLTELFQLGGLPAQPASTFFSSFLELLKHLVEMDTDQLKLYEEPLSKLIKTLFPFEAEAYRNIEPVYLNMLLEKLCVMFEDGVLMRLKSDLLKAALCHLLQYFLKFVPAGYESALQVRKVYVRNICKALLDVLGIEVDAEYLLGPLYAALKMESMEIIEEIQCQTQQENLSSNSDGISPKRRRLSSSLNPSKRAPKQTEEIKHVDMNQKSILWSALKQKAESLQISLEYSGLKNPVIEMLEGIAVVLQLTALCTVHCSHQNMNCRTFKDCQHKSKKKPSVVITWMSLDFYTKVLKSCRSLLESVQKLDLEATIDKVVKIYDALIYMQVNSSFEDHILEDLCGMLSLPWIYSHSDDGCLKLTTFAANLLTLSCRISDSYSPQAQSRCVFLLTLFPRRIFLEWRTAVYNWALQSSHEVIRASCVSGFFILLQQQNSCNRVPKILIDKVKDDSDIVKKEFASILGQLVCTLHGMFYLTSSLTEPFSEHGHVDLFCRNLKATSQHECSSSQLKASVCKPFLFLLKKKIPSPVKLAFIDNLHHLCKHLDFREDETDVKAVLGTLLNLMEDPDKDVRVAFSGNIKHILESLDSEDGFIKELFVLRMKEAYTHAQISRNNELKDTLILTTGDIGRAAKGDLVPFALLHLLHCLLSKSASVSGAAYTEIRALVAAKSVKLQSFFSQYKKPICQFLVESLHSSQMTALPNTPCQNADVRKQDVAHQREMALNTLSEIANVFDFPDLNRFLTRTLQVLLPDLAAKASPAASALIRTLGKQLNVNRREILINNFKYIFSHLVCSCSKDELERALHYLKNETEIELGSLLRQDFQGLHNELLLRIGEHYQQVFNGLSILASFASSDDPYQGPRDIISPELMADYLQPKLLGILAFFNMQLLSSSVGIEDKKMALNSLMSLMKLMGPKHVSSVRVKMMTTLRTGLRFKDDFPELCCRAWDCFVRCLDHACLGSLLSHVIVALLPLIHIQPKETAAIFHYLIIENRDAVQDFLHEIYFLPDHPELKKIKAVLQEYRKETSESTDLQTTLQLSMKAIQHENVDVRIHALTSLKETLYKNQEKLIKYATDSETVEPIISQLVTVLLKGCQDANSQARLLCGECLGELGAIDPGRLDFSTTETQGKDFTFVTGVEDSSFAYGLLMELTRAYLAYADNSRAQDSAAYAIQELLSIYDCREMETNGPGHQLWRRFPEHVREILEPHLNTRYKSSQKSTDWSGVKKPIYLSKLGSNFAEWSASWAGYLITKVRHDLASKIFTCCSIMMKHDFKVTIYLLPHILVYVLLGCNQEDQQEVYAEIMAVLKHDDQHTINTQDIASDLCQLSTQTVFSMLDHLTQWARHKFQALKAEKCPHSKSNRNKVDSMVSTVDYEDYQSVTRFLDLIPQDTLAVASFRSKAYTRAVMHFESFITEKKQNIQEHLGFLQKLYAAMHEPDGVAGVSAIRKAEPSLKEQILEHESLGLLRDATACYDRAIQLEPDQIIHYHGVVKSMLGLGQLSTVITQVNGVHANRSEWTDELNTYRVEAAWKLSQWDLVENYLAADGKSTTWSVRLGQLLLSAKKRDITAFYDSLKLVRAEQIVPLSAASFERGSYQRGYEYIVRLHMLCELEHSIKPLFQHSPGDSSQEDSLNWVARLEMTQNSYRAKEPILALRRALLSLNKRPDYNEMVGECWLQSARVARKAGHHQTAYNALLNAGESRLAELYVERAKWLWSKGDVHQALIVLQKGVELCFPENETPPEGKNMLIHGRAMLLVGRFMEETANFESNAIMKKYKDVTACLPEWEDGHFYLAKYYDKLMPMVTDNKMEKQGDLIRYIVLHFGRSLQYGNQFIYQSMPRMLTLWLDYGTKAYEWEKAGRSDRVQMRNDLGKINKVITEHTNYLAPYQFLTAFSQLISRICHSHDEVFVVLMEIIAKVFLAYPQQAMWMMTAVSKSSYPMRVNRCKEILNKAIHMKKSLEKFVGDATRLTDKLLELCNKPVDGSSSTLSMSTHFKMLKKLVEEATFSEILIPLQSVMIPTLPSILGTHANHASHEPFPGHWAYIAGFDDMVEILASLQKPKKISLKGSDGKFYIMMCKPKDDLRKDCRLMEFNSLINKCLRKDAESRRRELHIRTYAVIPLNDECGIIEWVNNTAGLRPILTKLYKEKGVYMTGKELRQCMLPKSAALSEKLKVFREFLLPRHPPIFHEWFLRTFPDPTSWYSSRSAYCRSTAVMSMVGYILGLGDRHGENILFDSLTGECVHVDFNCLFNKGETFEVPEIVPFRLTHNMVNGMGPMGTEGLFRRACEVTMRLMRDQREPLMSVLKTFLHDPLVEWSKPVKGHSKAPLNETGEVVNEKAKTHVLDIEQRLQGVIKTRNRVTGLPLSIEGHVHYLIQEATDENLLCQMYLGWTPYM
Chain of ATR (Q8WXE1 whole entry partner): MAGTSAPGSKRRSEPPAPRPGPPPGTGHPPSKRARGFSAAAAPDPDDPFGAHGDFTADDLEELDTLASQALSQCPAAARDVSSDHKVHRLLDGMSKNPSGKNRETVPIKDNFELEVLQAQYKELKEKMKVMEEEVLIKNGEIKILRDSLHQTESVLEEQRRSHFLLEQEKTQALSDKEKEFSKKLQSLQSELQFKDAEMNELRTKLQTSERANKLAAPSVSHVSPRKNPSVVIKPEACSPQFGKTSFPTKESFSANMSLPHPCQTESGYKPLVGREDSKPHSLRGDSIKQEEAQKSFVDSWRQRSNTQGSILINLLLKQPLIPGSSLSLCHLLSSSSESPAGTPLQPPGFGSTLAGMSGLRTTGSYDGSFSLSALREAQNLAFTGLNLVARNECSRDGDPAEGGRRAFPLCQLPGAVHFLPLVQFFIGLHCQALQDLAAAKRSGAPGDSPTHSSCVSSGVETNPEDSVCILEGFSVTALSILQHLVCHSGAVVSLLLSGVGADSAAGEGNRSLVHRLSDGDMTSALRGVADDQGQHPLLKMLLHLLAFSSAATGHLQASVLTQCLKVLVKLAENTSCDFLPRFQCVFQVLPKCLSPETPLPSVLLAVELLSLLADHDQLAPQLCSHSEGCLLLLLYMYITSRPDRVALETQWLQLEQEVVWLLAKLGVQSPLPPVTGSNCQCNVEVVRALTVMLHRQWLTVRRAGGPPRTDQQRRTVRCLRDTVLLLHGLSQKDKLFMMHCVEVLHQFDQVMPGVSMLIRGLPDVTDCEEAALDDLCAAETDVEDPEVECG

Chain of Vps34 (Q8NEB9 whole entry, species assumed): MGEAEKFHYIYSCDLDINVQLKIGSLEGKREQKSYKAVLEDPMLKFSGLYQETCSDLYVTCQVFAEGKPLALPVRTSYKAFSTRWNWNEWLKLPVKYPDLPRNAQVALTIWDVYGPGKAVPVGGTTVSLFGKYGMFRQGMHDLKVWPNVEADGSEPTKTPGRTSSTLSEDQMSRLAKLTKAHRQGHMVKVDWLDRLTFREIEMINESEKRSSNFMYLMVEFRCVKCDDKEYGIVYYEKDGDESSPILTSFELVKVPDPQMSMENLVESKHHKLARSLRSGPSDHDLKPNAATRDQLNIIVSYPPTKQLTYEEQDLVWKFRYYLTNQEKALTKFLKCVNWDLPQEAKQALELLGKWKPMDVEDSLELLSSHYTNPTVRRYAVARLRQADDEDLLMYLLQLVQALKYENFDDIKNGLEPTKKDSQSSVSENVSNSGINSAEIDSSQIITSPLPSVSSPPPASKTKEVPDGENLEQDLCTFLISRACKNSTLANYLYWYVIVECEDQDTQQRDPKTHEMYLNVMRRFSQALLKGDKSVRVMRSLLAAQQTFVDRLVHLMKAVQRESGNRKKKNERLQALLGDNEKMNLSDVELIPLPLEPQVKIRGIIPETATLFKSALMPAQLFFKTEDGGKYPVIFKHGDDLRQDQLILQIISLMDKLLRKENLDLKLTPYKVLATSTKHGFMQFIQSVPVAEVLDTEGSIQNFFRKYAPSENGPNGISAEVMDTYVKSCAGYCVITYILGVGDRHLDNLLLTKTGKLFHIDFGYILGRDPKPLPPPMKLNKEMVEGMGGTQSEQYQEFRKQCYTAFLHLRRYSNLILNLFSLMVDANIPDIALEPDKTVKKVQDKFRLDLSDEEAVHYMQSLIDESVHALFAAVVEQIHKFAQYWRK

With Cc1nc(NC(=O)N2CCC[C@H]2C(N)=O)sc1-c1ccnc(C(C)(C)C(F)(F)F)c1 [Compound A, (S)-Pyrrolidine-1,2-dicarboxylic acid 2-amide 1-({4-methyl-5-[2-(2,2,2-trifluoro-1,1-dimethyl-ethyl)-pyridin-4-yl]-thiazol-2-yl}-amide)] the AUC [1] was 35000 ng·h/mL and 80 µM·h, the Cmax [1] was 3500 ng/mL and 8 µM and the “Efficacy T/C (observed)” value ([2]; 6.25 mg 2qd) was 0.02. For the same compound, the “Efficacy T/C (observed)” value ([2]; 6.25 mg qd) was 0.19, the “Efficacy Regression (observed)” value ([2]; 12.5 mg 2qd) was −0.55 and the “Efficacy T/C (observed)” value ([2]; 12.5 mg qd) was 0.09. The “Efficacy Regression (observed)” value ([2]; 20 mg 2qd) was −0.80, the “Efficacy Regression (observed)” value ([2]; 25 mg qd) was −0.53 and the “Efficacy Regression (observed)” value ([2]; 40 mg 2qd) was −0.86. For the same compound, the “Efficacy Regression (observed)” value ([2]; 50 mg qd) was −0.65, the “dose linearity of pharmacokinetics” value [3] was “linear” and the IC50 ([4]; Mus musculus, read-out: in vivo IC50, tumor concentration giving 50% S473P-Akt inhibition) was 0.6 µM. It also gave an IC80 ([4]; Mus musculus, read-out: in vivo IC80 corrected for plasma protein binding) of 0.352 µM, an IC80 ([4]; Mus musculus, tumor concentration, versus controls, Rat1-myr-p110α tumors, read-out: in vivo IC80, tumor concentration giving 80% S473P-Akt inhibition) of 4 µM and an IC50 ([4]; corrected for mouse PPB, read-out: in vivo IC50 corrected for plasma protein binding) of 0.053 µM. For the same compound, the “inhibitory activity against mTOR” value [5] was “lacks inhibitory activity”, the clinical response [6] was “confirmed partial responses” and the “inhibitory activity against Vps34” value [7] was “lacks inhibitory activity”. For the same compound, the “dose linearity of pharmacokinetics” value [8] was “linear”, the fraction unbound [9] was 0.088 and the “fraction of the dosing interval above the hyperglycemia cut-off that maintains body weight loss below 5%” value [10] was “no more than 35 % of the dosing interval”. The insulin plasma levels [11] was “increased proportionally”, the insulin plasma levels [12] was “increased proportionally” and the “fraction of the dosing interval with 80% inhibition of Akt phosphorylation required to induce tumor stasis” value [13] was “at least 25 % of the dosing interval”. The “Efficacy T/C (observed)” value ([14]; 6.25 mg qd) was 0.22, the “Efficacy T/C (observed)” value ([14]; 12.5 mg qd) was 0.05 and the “Efficacy Regression (observed)” value ([14]; 25 mg qd) was −0.65. For the same compound, the “Efficacy Regression (observed)” value ([14]; 50 mg qd) was −0.80, the “inhibitory activity against DNA-PK” value [15] was “lacks inhibitory activity” and the IC50 [16] was 0.074 µM. The IC80 [16] was 0.301 µM, the decreased appetite [17] was 34 % of patients and the diarrhea [17] was 35 % of patients. The hyperglycemia [17] was 49 % of patients, the nausea [17] was 43 % of patients and the rash and hypersensitivity [17] was 34 % of patients. The “inhibitory activity against ATR” value [18] was “lacks inhibitory activity”.
